From patent US6492328B2, “Novispirins: antimicrobial peptides” (priority 2000, dated 2002) come the findings set out here.

Read-outs that look alike come from different tables or passages of the source. Where no end group is shown, it is not given here. A value given as a limit tells only on which side of the number the result lay.

In one assay the test system is E. coli ML 35P. Format: cell-based, Escherichia coli. The note with it: mean ± SEM, n = 3. The procedure: Antimicrobial activity. Several different methods were used to examine the antimicrobial properties of novispirins, including: a) two-stage radial diffusion assays; b) colony counting assays; and c) standard microbroth dilution assays.
Antimicrobial activity was tested in media with low, normal or high salinity. In radial diffusion assays, this was accomplished by using a low salt “basic medium” containing 0.3 mg of trypticase soy broth powder/ml of 10 mM sodium phosphate buffer, pH 7.4. Media with “normal” or “high” salinity were prepared by supplementing the basic medium with 100 mM NaCl to obtain media with normal salinity, or with 175-200 mM NaCl to obtain high salt media. Retention of activity against P. aeruginosa in high salt media is important because airway fluids from cystic fibrosis patients are reported to show hypersalinity, and other sites—including skin surfaces surfaces and the urinary bladder—may have locally high salt concentrations.
The relative activities of ovispirin and the novispirins against two organisms, E. coli and a multi-resistant strain of P. aeruginosa, are shown in FIG. 1. The MICs were obtained by radial diffusion assays performed under low, normal, and high salt conditions (which are denoted along the X-axis as 0, 100 and 200 mM NaCl, respectively).
Table 1 compares the activity of novispirins against these Gram-negative bacteria with its activity against Listeria monocytogenes, Staphylococcus aureus and C. albicans. […] Note that novispirins show activity against these Gram-positive bacteria when tested in physiological (100 mM NaCl) salt concentrations, and also that Novispirin G10 is quite active against C. albicans. Although neither ovispirin nor novispirins retained activity against C. albicans or the Gram positives under very high salt conditions (200 mM NaCl), they remained active against the Gram-negatives under these conditions. Consequently, even if the airways' NaCl concentrations are exceptionally high in CF patients, this factor will not impair the ability of ovispirin or novispirins to kill P. aeruginosa.

The next assay has as its system S. maltophilia 18CP. Description: Novispirins vs S. maltophilia (Table 5). The arrangement: unit not given here. Conditions: strain 18CP. Format: cell-based, Stenotrophomonas maltophilia. On the procedure: (§1) Microorganisms used in this study included 13 different Pseudomonas aeruginosa strains. The AML-654 and LZ-1 strains are recent clinical isolates from the UCLA Clinical Microbiology laboratory. Nine strains (5 mucoid, 4 nonmucoid) were recent CF isolates provided by Dr. Lisa Saiman. All of the P. aeruginosa strains except PAO-1 strain were resistant to multiple conventional antibiotics, and all 9 CF isolates were resistant to 250 μg/ml of tobramycin. We have also tested 5 strains each of Stenotrophomonas maltophilia and Burkholderia cepacia from CF patients (also provided by Dr. Lisa Saiman), two strains of Escherichia coli (ML-35p and DH-5a), and single strains of Staphylococcus aureus[MRSA (methicillin-resistant S. aureus)] and C. albicans.

The subject of another assay is S. maltophilia 36CN. Description: Novispirins vs S. maltophilia (Table 5). Format: cell-based, Stenotrophomonas maltophilia. The arrangement: unit not given here. Conditions: strain 36CN. The procedure:
as §1

The subject of a further assay is S. maltophilia 42CK. The assay can be described thus: Novispirins vs S. maltophilia (Table 5). The note with it: strain 42CK. The arrangement: unit not given here. Format: cell-based, Stenotrophomonas maltophilia. On the procedure: as §1
The test system of a further assay is S. maltophilia 47CG. The assay can be described thus: Novispirins vs S. maltophilia (Table 5). Type of assay: cell-based, Stenotrophomonas maltophilia. Details: unit not given here. The note with it: strain 47CG. On the procedure: as §1
The next assay has as its system S. maltophilia 51Cl. The assay can be described thus: Novispirins vs S. maltophilia (Table 5). Conditions: strain 51Cl. Format: cell-based, Stenotrophomonas maltophilia. The arrangement: unit not given here. The procedure:
as §1

In another assay the test system is E. coli. Description: Two stage radial diffusion assay with 10 mM HEPES, G10 variants (Table 8). The note with it: mean ± SEM, n = 3, in µg/mL. Type of assay: cell-based. From the text:
(§2) Amidation (—NH2) of the carboxy terminus in some of the novispirin G10 variants was designed to increase overall positive charge. The sequences of these peptides and their net charge is shown below in Table 7. The fractional (and pH dependent) charge on histidine12 was ignored in this calculation.
(§3) In Table 8, MIC signifies minimal inhibitory concentration, as determined by two stage radial diffusion assays. […] Shaded boxes show results that represent a significant improvement of activity (p<0.01 by t-test), relative to novispirin G10. […] None of the above G10 novispirin derivatives caused any hemolysis of human red blood cells, even when tested at 80 μg/ml. It is likely that other cationic amino acids (e.g., lysine, ornithine, etc) could also be used in position 12 to achieve better activity in the presence of calcium and magnesium ions.

Another assay concerns K. pneumoniae. Described as above. Format: cell-based. Conditions: mean ± SEM, n = 3, in µg/mL.
Description: as §2, §3

A further assay concerns P. aeruginosa. The assay is described as above. Format: cell-based. Conditions: mean ± SEM, n = 3, in µg/mL.
Description: as §2, §3

The subject of a further assay is S. aureus. Described as above. Format: cell-based. Conditions: +1 mM Ca; mean ± SEM, n = 3; in µg/mL.
Description: as §2, §3

The mark [1] stands for this setting: Very high salinity (+200 mM NaCl).

Consider “KNLRRITRKIIHIIKKYG [T7 Novispirin, K N L R R I T R K I I H I I K K Y G]”, for which the values for the MIC with E. coli ML 35P (Low Salt (+0 mM NaCl)), in the assay with E. coli ML 35P (Normal salinity (+100 mM NaCl)) and against E. coli ML 35P (setting [1]) were 0.3 ± 0.1 µg/mL, 0.2 ± 0.1 µg/mL and 1.4 ± 0.5 µg/mL, respectively. The “activity vs S. maltophilia” value in the assay on S. maltophilia 18CP (+100 mM NaCl) was 0.58; in the assay with S. maltophilia 18CP (+175 mM NaCl), 0.62; in the assay with S. maltophilia 18CP (LOW SALT CONDITIONS), 0.74; in the assay on S. maltophilia 36CN (+100 mM NaCl) it was 0.32; in the assay on S. maltophilia 36CN (+175 mM NaCl) it was 0.52; in the assay with S. maltophilia 36CN (LOW SALT CONDITIONS), 0.21. Also, the “activity vs S. maltophilia” value with S. maltophilia 42CK (+100 mM NaCl) is given as 0.73; in the assay with S. maltophilia 42CK (+175 mM NaCl) it was 1.92; in the assay on S. maltophilia 42CK (LOW SALT CONDITIONS), 0.56; with S. maltophilia 47CG (+100 mM NaCl), 0.47; with S. maltophilia 47CG (+175 mM NaCl) it was 0.48; with S. maltophilia 47CG (LOW SALT CONDITIONS), 0.18. Besides, the “activity vs S. maltophilia” value in the assay with S. maltophilia 51Cl (+100 mM NaCl) is 1.75; with S. maltophilia 51Cl (+175 mM NaCl) it was 2.74; in the assay on S. maltophilia 51Cl (LOW SALT CONDITIONS), 0.88.
On to “K N L R R I I R K G I H I I K K Y G-CONH2 (KNLRRIIRKGIHIIKKYG-NH2) [Novispirin G10 amide]”, for which the MIC against E. coli (+1 mM Ca) was 7.26 ± 0.02; in the assay with E. coli (+1 mM Mg) it was 17.2 ± 3.9; against E. coli (No Ca/Mg), 0.06 ± 0.00; in the assay on K. pneumoniae (+1 mM Ca) it was 83.5 ± 6.4; with K. pneumoniae (+1 mM Mg), above 250; in the assay on K. pneumoniae (No Ca/Mg) it was 0.12 ± 0.01. Further, the MIC was 83.5 ± 6.4 in the assay with P. aeruginosa (+1 mM Ca), above 250 in the assay with P. aeruginosa (+1 mM Mg), 0.12 ± 0.01 with P. aeruginosa (No Ca/Mg) and above 79 with S. aureus.
`CC(C)C[C@H](NC(=O)[C@H](CCCNC(=N)N)NC(=O)CNC(=O)CNC(=O)[C@@H](N)CCCNC(=N)N)C(=O)N[C@H]1CSSC[C@@H](C(=O)N[C@H](C(=O)NCC(=O)N[C@@H](CCCNC(=N)N)C(N)=O)C(C)C)NC(=O)[C@H](C(C)C)NC(=O)[C@@H]2CSSC[C@H](NC(=O)[C@H](Cc3ccc(O)cc3)NC1=O)C(=O)N[C@@H](CCCNC(=N)N)C(=O)N[C@@H](CCCNC(=N)N)C(=O)N[C@@H](CCCNC(=N)N)C(=O)N[C@@H](Cc1ccccc1)C(=O)N2` [Protegrin PG-1, reference compound]: the “activity vs S. maltophilia” value was 0.58 in the assay with S. maltophilia 18CP (+100 mM NaCl); 0.70 with S. maltophilia 18CP (+175 mM NaCl); 0.52 in the assay with S. maltophilia 18CP (LOW SALT CONDITIONS); 0.46 in the assay with S. maltophilia 36CN (+100 mM NaCl); 0.57 with S. maltophilia 36CN (+175 mM NaCl); 0.27 with S. maltophilia 36CN (LOW SALT CONDITIONS). Also, the “activity vs S. maltophilia” value was found to be 0.50 in the assay with S. maltophilia 42CK (+100 mM NaCl); 0.79 in the assay with S. maltophilia 42CK (+175 mM NaCl); 0.32 in the assay with S. maltophilia 42CK (LOW SALT CONDITIONS); 0.53 in the assay with S. maltophilia 47CG (+100 mM NaCl); 0.74 with S. maltophilia 47CG (+175 mM NaCl); 0.09 in the assay with S. maltophilia 47CG (LOW SALT CONDITIONS). The “activity vs S. maltophilia” value in the assay with S. maltophilia 51Cl (+100 mM NaCl) amounted to 0.92; in the assay with S. maltophilia 51Cl (+175 mM NaCl), 1.08; in the assay on S. maltophilia 51Cl (LOW SALT CONDITIONS) it was 0.42.
In the case of “KNLRRIGRKIIHIIKKYG [G7 Novispirin, K N L R R I G R K I I H I I K K Y G]”, the MIC was 0.2 ± 0.0 µg/mL in the assay with E. coli ML 35P (Low Salt (+0 mM NaCl)), 0.2 ± 0.0 µg/mL against E. coli ML 35P (Normal salinity (+100 mM NaCl)) and 1.5 ± 0.4 µg/mL against E. coli ML 35P (setting [1]). The “activity vs S. maltophilia” value was found to be 0.38 with S. maltophilia 18CP (+100 mM NaCl); 0.70 in the assay on S. maltophilia 18CP (+175 mM NaCl); 0.61 with S. maltophilia 18CP (LOW SALT CONDITIONS); 0.31 in the assay with S. maltophilia 36CN (+100 mM NaCl); 0.29 in the assay with S. maltophilia 36CN (+175 mM NaCl); 0.17 with S. maltophilia 36CN (LOW SALT CONDITIONS). The “activity vs S. maltophilia” value in the assay on S. maltophilia 42CK (+100 mM NaCl) stood at 0.92; in the assay on S. maltophilia 42CK (+175 mM NaCl), 2.85; in the assay with S. maltophilia 42CK (LOW SALT CONDITIONS), 0.42; in the assay on S. maltophilia 47CG (+100 mM NaCl), 0.39; in the assay with S. maltophilia 47CG (+175 mM NaCl), 0.29; in the assay with S. maltophilia 47CG (LOW SALT CONDITIONS) it was 0.25. Moreover, the “activity vs S. maltophilia” value in the assay on S. maltophilia 51Cl (+100 mM NaCl) is 0.89; in the assay on S. maltophilia 51Cl (+175 mM NaCl), 1.94; in the assay with S. maltophilia 51Cl (LOW SALT CONDITIONS), 0.54.
Consider Polymyxin B [reference compound], for which the “activity vs S. maltophilia” value with S. maltophilia 18CP (+100 mM NaCl) turned out to be 0.04; in the assay on S. maltophilia 18CP (+175 mM NaCl) it was 0.002; in the assay with S. maltophilia 18CP (LOW SALT CONDITIONS) it was 0.04; in the assay on S. maltophilia 36CN (+100 mM NaCl), 0.02; in the assay on S. maltophilia 36CN (+175 mM NaCl) it was 0.02; in the assay with S. maltophilia 36CN (LOW SALT CONDITIONS), 0.06. For the same compound, the “activity vs S. maltophilia” value with S. maltophilia 42CK (+100 mM NaCl) amounted to 0.02; with S. maltophilia 42CK (+175 mM NaCl), 0.01; in the assay on S. maltophilia 42CK (LOW SALT CONDITIONS), 0.05; in the assay with S. maltophilia 47CG (+100 mM NaCl) it was 0.08; in the assay on S. maltophilia 47CG (+175 mM NaCl) it was 0.05; with S. maltophilia 47CG (LOW SALT CONDITIONS) it was 0.16. Besides, the “activity vs S. maltophilia” value in the assay on S. maltophilia 51Cl (+100 mM NaCl) is 0.04; with S. maltophilia 51Cl (+175 mM NaCl) it was 0.05; in the assay on S. maltophilia 51Cl (LOW SALT CONDITIONS) it was 0.02.
As to “GLLRRLRKKIGEIFKKYG [PGG, reference compound]”, the “activity vs S. maltophilia” value with S. maltophilia 18CP (+100 mM NaCl) is 1.63; with S. maltophilia 18CP (+175 mM NaCl) it was 2.34; with S. maltophilia 18CP (LOW SALT CONDITIONS) it was 0.86; with S. maltophilia 36CN (+100 mM NaCl) it was 1.05; in the assay on S. maltophilia 36CN (+175 mM NaCl), 1.11; with S. maltophilia 36CN (LOW SALT CONDITIONS), 1.10. Further, the “activity vs S. maltophilia” value in the assay with S. maltophilia 42CK (+100 mM NaCl) is recorded as 2.67; in the assay on S. maltophilia 42CK (+175 mM NaCl), 7.10; with S. maltophilia 42CK (LOW SALT CONDITIONS) it was 1.51; with S. maltophilia 47CG (+100 mM NaCl), 1.08; in the assay with S. maltophilia 47CG (+175 mM NaCl) it was 1.64; in the assay with S. maltophilia 47CG (LOW SALT CONDITIONS) it was 0.73. Further, the “activity vs S. maltophilia” value was 2.20 with S. maltophilia 51Cl (+100 mM NaCl), 2.85 in the assay on S. maltophilia 51Cl (+175 mM NaCl) and 1.31 with S. maltophilia 51Cl (LOW SALT CONDITIONS).
